Data on 2 molecules can be found in patent US20240082345A1, “PEPTIDE COMPOSITION FOR PREVENTION OR TREATMENT OF ALZHEIMER'S DISEASE” (priority 2020, published 2024).

Non-standard residues stand in square brackets, D forms with d. Residues, ends and D or L forms follow the SMILES beside them.

For one data set, the target named is T1, tau K18 (Homo sapiens, UniProt P10636).
T1 construct: 0.5 mg/mL tau K18, 0.1 mg/mL heparin
The data set is described as follows: Thioflavin T (ThT) assay of tau aggregation. The class given is biochemical. The following applies: 0.5 mg/mL tau K18, 0.1 mg/mL heparin, DTT, PBS pH 7.4, 21 hours incubation; 10-1000 μg/mL (FIG. 7). As to the method: Thioflavin T (ThT) assay was performed to investigate the effect of DD-S052 and PEGylated DD-S052 on tau aggregation. ThT is known to bind to (3-sheet-rich protein aggregates to produce fluorescence. Synthetic tau K18 was dissolved in PBS (pH 7.4) in order to induce tau aggregation. The polymerization of tau proteins was induced by preparing a solution including PBS (pH 7.4), 0.5 mg/mL tau K18, 0.1 mg/mL heparin and 100 ρ, M DTT. DD-5052 at various concentrations (10, 20, 40, 100, and 1000 μg/mL), a 100 ρ, M methylene blue (MB) solution (positive control), and PEGylated DD-5052 were incubated together with an aggregation mixture for 21 hours. After incubation, a ThT solution (15 ρ, M in a 50 mM glycine buffer, pH 8.9) was added to a 96-well plate containing the sample and the aggregation mixture, and the resulting mixture was incubated for 3 hours. The fluorescence intensity of ThT was measured using a SpectraMax iD3 Multi-Mode Microplate Reader (Molecular Devices, San Jose, CA, USA) at excitation and emission wavelengths of 440 and 484 nm and quantified.

The subject of another data set is wild-type mice. The data set is described as follows: LPS-induced neuroinflammation (microgliosis) in brains of wild-type mice, Iba-1 immunohistochemical staining. The class given is in vivo, mouse. As to the method: Sections were incubated in 1% H2O2 for 15 minutes, and then put into a solution in which a mouse […] was diluted 1:400, and incubated at 4° C. overnight. After incubation with a biotinylated secondary antibody (diluted 1:200, Vector Laboratories, Inc., Burlingame, CA, USA) at room temperature for 1 hour, the sections were incubated with an avidin-biotin-peroxidase complex (diluted 1:100, vector) for 1 hour. Thereafter, 0.02% 3,3′-diaminobenzidine and 0.01% H2O2 were reacted for about 3 minutes. After each incubation stage, the sections were washed three times with PBS. Finally, the sections were mounted on gelatin-coated slides, and dehydrated while increasing an alcohol concentration and cleared in xylene.
Experiments were designed as illustrated in FIG. 4A to confirm microglia in the brains of wild-type mice, and immunohistochemical staining was performed using a goat-anti Iba-1 antibody (Ab5076,1:500) against Iba-1 which is a marker for microglia. Three-month-old wild-type mice were intraperitoneally injected (i.p.) with LPS (30 mg/kg/day)+vehicle (Hartmann dex) or DD-S052 (30 mg/kg/day)+LPS (30 mg/kg/day), and sacrificed 6 hours after the last injection of LPS. In this case, LPS and DD-S052 were loaded in separate syringes and injected separately into the right and left abdomen, respectively, and LPS was administered, and then DD-S052 was administered approximately 1 minute later. The half-life of LPS in mouse blood was approximately 2 to 4 minutes. 6 hours after administration of LPS and DD-S052, mouse brains were removed by cardiac perfusion fixation (4% PFA). Thereafter, the removed mouse brain was secondarily fixed in 4% PFA for 20 hours, and then immersed in a 30% sucrose solution. Subsequently, the mouse brains were frozen and sliced into a thickness of 30 μm.
Thereafter, immunohistochemical staining for Iba-1 was performed by the method described in Example 1-2 in order to confirm microglia in the mouse hippocampus, and the results are shown in FIG. 4B.
Microglia were confirmed in the substantia nigra pars compacta (SNc) by performing immunohistochemical staining for Iba-1. Wild-type mice were treated with LPS and DD-5052 in the same manner as in Example 5-1.

The nature of data set [1]: Artificial membrane permeation test simulating the blood-brain barrier (PAMPA-096), LC-MS / ESI-FT-ICR-MS. The data set is classed as in vitro ADME. The following applies: for MS peak intensity, Before / LogPe: 100 μg/ml peptide; for LogPe: 18 hr, room temperature, PBS; for MS peak intensity, Acceptor / MS peak intensity, Donor: after 18 hr. How it is done:
In order to confirm whether the peptide DD-S052 of the present invention passes through the blood-brain barrier (BBB), an artificial membrane permeation test simulating the blood-brain barrier was performed using a parallel artificial membrane permeability assay kit (PAMPA-096; BioAssay Systems).
Analysis conditions are shown in the following Table 5, and analysis was performed by liquid chromatography-mass spectrometry (LC-MS).
Quantitative analysis was performed using electrospray ionization coupled to Fourier transform ion cyclotron resonance mass spectrometry (ESI-FT-ICR-MS), and the analysis conditions are shown in the following Table 6.
The intensity value of a peak corresponding to the test material was used according to the Log Pe function described in an existing document (Evaluation of the reproducibility of Parallel Artificial Membrane Permeation Assays PAMPA, Sigma Aldrich), and the value calculated by the Log Pe function was used to predict the degree of permeation by referencing an existing document (Brian. J et al. Predicting a Drug's Membrane Permeability: A Computational Model Validated With in Vitro Permeability Assay Data. J Phys Chem B. 2017 May 25;121(20):5228-5237).

The test system of data set [2] is 5XFAD mice. Briefly: LPS-induced neuroinflammation in brains of 5XFAD Alzheimer's dementia mice, Iba-1 immunohistochemical staining. The following applies: 3-month-old 5XFAD mice, single dose 10 mg/kg + LPS 3 mg/kg, 48 hours, vs LPS+vehicle (FIG. 5B). The class given is in vivo, mouse. How it is done:
Since LPS causes different degrees of inflammatory response depending on the strain of animals to be administered, LPS origin and the like, the animals were co-administered a single dose of 3 mg/kg of LPS and 10 mg/kg of DD-5052, and then sacrificed 48 hours later, 5XFAD mice were treated with 3 mg/kg of LPS by referencing a document which confirms the mortality rate by treating 5XFAD mice with 3 mg/kg of LPS (Barton, S. M.; Janve, V. A.; McClure, R.; Anderson, A.; Matsubara, J. A.; Gore, J. C.; Pham, W., Lipopolysaccharide Induced Opening of the Blood Brain Barrier on Aging 5XFAD Mouse Model. J Alzheimers Dis 2019, 67, (2), 503-513.) and a document which confirms that microgliosis reaches its maximum value from day 2 after the administration of LPS (Kondo, S.; Kohsaka, S.; Okabe, S., Long-term changes of spine dynamics and microglia after transient peripheral immune response triggered by LPS in vivo. […] 48 hours after administration of LPS and DD-5052, mouse brains were removed by cardiac perfusion fixation (4% PFA). Thereafter, the removed mouse brain was secondarily fixed in 4% PFA for 20 hours, and then immersed in a 30% sucrose solution. Subsequently, the mouse brains were frozen and sliced into a thickness of 30

For data set [3], the system named is LPS-treated BV-2 cells (microglial cell line). The data set is described as follows: LPS-mediated cytokine production in BV-2 cells (qRT-PCR). The following applies: 20 ng/ml peptide + 2 ng/ml LPS co-treatment, 6 hours, vs LPS-treated cells (FIG. 3). The data set is classed as cell-based. How it is done:
Microglial cell line BV-2 cells were co-treated with 20 ng/ml of peptide (DD-5052) according to the invention and 2 ng/ml of LPS and cultured for 6 hours. Subsequently, the mRNA expression levels of proinflammatory cytokines IL-1(3 and TNF-α were measured using quantitative real-time polymerase chain reaction (PCR).
Specifically, total RNA was extracted from BV-2 cells using an RNA purification kit (Gene All, Seoul, Korea) according to the manufacturer's protocol. cDNA was synthesized using the Revert Aid First Strand cDNA Synthesis Kit (Thermo Scientific, Waltham, MA, USA) and qRT-PCR analysis was performed using the SYBR Green PCR Master Mix (Thermo Scientific, Waltham, MA, USA). The gene-specific primer sequences for IL-1(3 and TNF-α are shown in the following Table 4, and the mRNA levels of IL-1(3 and TNF-α were calculated relative to the control sample amount.

The subject of data set [4] is 5XFAD mice. The data set is described as follows: Cognitive function experiment (spontaneous alternation, total arm entry) in 5XFAD mice. The following applies: 5.5-month-old 5XFAD mice, 2 mg/kg i.p. every other day for 4 weeks. The class given is in vivo, mouse. How it is done: (§1) Then, cognitive function experiments were performed on each mouse, and then the mouse brain was fixed by cardiac perfusion fixation. Thereafter, the removed mouse brain was secondarily fixed in a 4% PFA solution for 20 hours, and then immersed in a 30% sucrose solution. Subsequently, the mouse brains were frozen and sliced into a thickness of 30 μm.
The cognitive function experiment is a novel experiment based on the instinctive behavior of rodents with the will to explore new environments, and is an experiment to evaluate the spatial perception ability of mice to choose a path different from the one which mice chose immediately before in a maze, and scores are given by dividing spontaneous alternation (the ratio of choosing a different path from the path chosen immediately before) by the total number of passages passed (total arm entry). The total arm entry during the experiment becomes an index to evaluate whether all groups have similar motility and whether the experiment is performed normally, apart from spatial perception ability.

Data set [5] relates to 5XFAD mice. The data set is described as follows: Alzheimer's dementia-related pathology in 5XFAD mice, immunofluorescence staining (4G8, Iba-1, NeuN). The class given is in vivo, mouse. As to the method: as §1
The effects of DD-S052 on beta-amyloid accumulation, microgliosis, and neuronal loss were confirmed using an immunofluorescence staining method.
Specifically, in the case of immunofluorescence labeling, 4 to 5 coronal sections were obtained at subventricular zone (1.18 and 0.02 mm from bregma) and hippocampal formation (−1.58 and −3.80 mm from bregma) levels based on Paxinos and Franklin's “The Mouse Brain in Stereotaxic Coordinates.” Brain tissue was washed with PBS using the free-floating method in a Titramax 101 orbital shaker (Heidolph, Schwabach, Germany) and sections were incubated with PBS including 0.3% Triton X-100, 0.5 mg/mL bovine serum albumin (BSA) and primary antibodies as follows at 4° C. overnight: mouse anti-4G8 antibody (1:2,000; Cat. #800701, BioLegend, USA), mouse anti-NeuN antibody (1:100; Cat. #MAB377, Merck KGaA, Darmstadt, Germany), and goat anti-Iba-1 antibody (1:500; Cat. #ab5076, Abcam, Cambridge, UK).
Before being incubated with the anti-4G8 antibody, brain sections were incubated with 70% formic acid for antigen retrieval for 20 minutes, washed three times with PBS for 5 minutes each, and then incubated with a secondary antibody at room temperature for 50 minutes, and fluorescence signals were observed. As the secondary antibodies, the following antibodies were used: donkey Alexa 488-conjugated anti-mouse IgG (1:200; Cat. #A21202, Thermo Fisher Scientific Inc.), donkey Alexa 488-conjugated anti-goat IgG (1:200; Cat. #A11055, Thermo Fisher Scientific Inc.), and donkey Alexa 594-conjugated anti-rat IgG (1:200; Cat. #A21209, Thermo Fisher Scientific Inc.). All antibodies were diluted with PBS including 0.3% Triton X-100.

T1 sequence (P10636 561-685 limits assumed): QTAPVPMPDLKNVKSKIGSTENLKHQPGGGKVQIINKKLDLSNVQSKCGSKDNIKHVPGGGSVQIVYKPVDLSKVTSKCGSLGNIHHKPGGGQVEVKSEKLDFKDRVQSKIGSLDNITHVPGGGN

Take “EG-KLRVKLRRYLR-NH2 (AcOH) (not fully specified; N-terminal PEG, C-terminal amide, acetate salt; DD-S052P; BINDING (11) amine group (NH2) is added to C-terminus of polypeptide.; SITE (9) trifluoroacetic acid (TFA) at a terminus of the 9th amino acid from the N terminus of a peptide is substituted with an acetate salt.; SITE (1) peptide N-terminus PEGylation)”: the “fluorescence intensity of thioflavin T (ThT) (tau K18 aggregation)” value with tau K18 is recorded as “reduced”.
Take `CC(C)C[C@@H](NC(=O)[C@H](N)CCCCN)C(=O)N[C@H](CCCNC(=N)N)C(=O)N[C@@H](C(=O)N[C@H](CCCCN)C(=O)N[C@H](CC(C)C)C(=O)N[C@H](CCCNC(=N)N)C(=O)N[C@H](CCCNC(=N)N)C(=O)N[C@H](Cc1ccc(O)cc1)C(=O)N[C@H](CC(C)C)C(=O)N[C@H](CCCNC(=N)N)C(N)=O)C(C)C` [DD-S052, KLRVKLRRYLR-NH2 (AcOH)] (H-[dK][dL][dR][dV][dK][dL][dR][dR][dY][dL][dR]-NH2; N-terminus assumed): the “fluorescence intensity of thioflavin T (ThT) (tau K18 aggregation)” value on tau K18 is recorded as “reduced”. For the same molecule, the “microglial morphology in hippocampus” value with wild-type mice (3-month-old wild-type mice, 30 mg/kg/day i.p. + LPS 30 mg/kg/day i.p., 6 hours after last LPS (FIG. 4B)) was “tendency to change from an amoeboid shape to a ramified shape”. Also, the “number of Iba-1-positive cells in hippocampus” value with wild-type mice (3-month-old wild-type mice, 30 mg/kg/day i.p. + LPS 30 mg/kg/day, vs LPS+vehicle (Hartmann dex), p<0.001 (FIG. 4C)) was “remarkably decreased”. Besides, the “microglial morphology in substantia nigra pars compacta (SNc)” value in the data set with wild-type mice (wild-type mice, 30 mg/kg/day i.p. + LPS 30 mg/kg/day (FIG. 4D)) is “tendency to change from an amoeboid shape to a ramified shape”. In addition, the “Iba-1(+) microglia in the SNc” value with wild-type mice (wild-type mice, 30 mg/kg/day i.p. + LPS 30 mg/kg/day, vs LPS+vehicle (FIG. 4D)) is on record as “tended to decrease”. In data set [1] (peak at 375 m/z), the “MS peak intensity, Before” value is listed as 1829478400; the LogPe is given as −5.405; the “MS peak intensity, Acceptor” value is on record as 717305173; the “MS peak intensity, Donor” value is reported as 909677952. For the same molecule, in data set [1] (peak at 512 m/z), the “MS peak intensity, Before” value is given as 1667509760; the LogPe was −5.362; the “MS peak intensity, Acceptor” value is 717488192; the “MS peak intensity, Donor” value is on record as 867968256. Also, in the data set on 5XFAD mice [2], the “Iba-1(+) microglia in cerebral cortex and hippocampus” value is given as “decreased”. In data set [3], the “mRNA expression of IL-1(3 induced by LPS)” value was “suppressed” and the “mRNA expression of TNF-α induced by LPS” value is on record as “suppressed”. Also, the total arm entry entry in the data set on 5XFAD mice [4] (8-minute session, vs vehicle-treated 5XFAD, no significance between groups) is recorded as “increased”. The spontaneous alternation result with 5XFAD mice [4] (vs vehicle-treated 5XFAD (FIG. 6B)) was “increased”. The “number of NeuN(+) cells (neuronal loss)” value in the data set on 5XFAD mice [5] (2 mg/kg i.p. every other day for 4 weeks) is listed as “increased”. In addition, in the data set on 5XFAD mice [5] (2 mg/kg i.p. every other day for 4 weeks (FIG. 6C)), the “4G8(+) region (beta-amyloid accumulation)” value is recorded as “reduced”. For the same molecule, the “number of Iba-1(+) cells (microgliosis)” value in the data set on 5XFAD mice [5] (2 mg/kg i.p. every other day for 4 weeks (FIG. 6D)) was “reduced”.
